According to patent US20130303576A1, “ENZYME INHIBITORS” (priority 2009, published 2013):

Columns and labels:
U937 cells = assay: U937 cell inhibition assay (WST-1 cell viability); type: cell-based; conditions: for times more potent in the monocytic cell line (U937) than the non-monocytic cell line (Hut78): U937 versus Hut78; for potency in the U937 cellular assay compared with the parent compound: versus parent compound A
Description: (§1) Cancer cell lines (U937 and HUT) growing in log phase were harvested and seeded at 1000-2000 cells/well (100 μl final volume) into 96-well tissue culture plates. Following 24 h of growth cells were treated with Compound. Plates were then re-incubated for a further 72-98 h before a WST-1 cell viability assay was conducted according to the suppliers (Roche Applied Science) instructions.
(§2) Data were expressed as a percentage inhibition of the control, measured in the absence of inhibitor, as follows:
(§3) % inhibition=100−[(S^i/S^o)×100]
(§4) where S^i is the signal in the presence of inhibitor and S^o is the signal in the presence of DMSO.
(§5) Dose response curves were generated from 8 concentrations (top final concentration 10 μM, with 3-fold dilutions), using 6 replicates.
(§6) IC50 values were determined by non-linear regression analysis, after fitting the results to the equation for sigmoidal dose response with variable slope (% activity against log concentration of Compound), using Graphpad Prism software.
(§7) IC50 results were allocated to one of 3 ranges as follows: […]

HUT78 cells = assay: HUT cell inhibition assay (WST-1 cell viability); type: cell-based; conditions: read-out: Inhibition of proliferation in HUT78 cells (IC50 nM)
Description: as §1, §2, §3, §4, §5, §6, §7

Row | SMILES | times more potent in the monocytic cell line (U937) than the non-monocytic cell line (Hut78) (U937 cells) [times] | potency in the U937 cellular assay compared with the parent compound (U937 cells) | IC50 (HUT78 cells) [nM]
1 | O=C(CCc1ccc(CNC2(C(=O)OC3CCCC3)CCCC2)cc1)NO [Example 14, Cyclopentyl 1-({4-[3-hydroxyamino)-3-oxopropyl]benzyl}amino) cyclopentanecarboxylate] | 30 | significantly more potent | –
2 | CC(C)CC(C)(NCc1ccc(CCC(=O)NO)cc1)C(=O)OC1CCCC1 (racemic) [Example 16, Cyclopentyl N-{4-[3-(hydroxyamino)-3-oxopropyl]benzyl}-2-methyl-D,L-leucinate] | 30 | significantly more potent | 0.04
